Measurements from patent publication US20260098026A1, “M4 ACTIVATORS/MODULATORS AND USES THEREOF” (Cerevel Therapeutics, LLC, priority 2022, published 2026).

Tests used:
[1] = target: T1, M3 muscarinic acetylcholine receptor (mAChR) (Homo sapiens, UniProt P20309); test: FLIPR calcium assay (Fluo 8), M3-overexpressing CHO-K1 cells; assay type: cell-based
T1 construct: expressed in transfected cells; host or cells: CHO-K1
Method in brief: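 CHO-K1 cells overexpressing each human receptor seeded at 15,000 per well, grown overnight at 37° C., 5% CO2, then loaded with Fluo-8 for 30 min. Compounds in HBSS added and calcium response read on FLIPR; EC50 and Emax calculated per subtype.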

M4 mAChR = target: T2, M4 mAChR (Homo sapiens, UniProt P08173); test: cAMP TR-FRET assay with forskolin, M4-overexpressing CHO-K1 cells; assay type: cell-based
T2 construct: expressed in transfected cells; host or cells: CHO-K1
T2 sequence (P08173 1-479): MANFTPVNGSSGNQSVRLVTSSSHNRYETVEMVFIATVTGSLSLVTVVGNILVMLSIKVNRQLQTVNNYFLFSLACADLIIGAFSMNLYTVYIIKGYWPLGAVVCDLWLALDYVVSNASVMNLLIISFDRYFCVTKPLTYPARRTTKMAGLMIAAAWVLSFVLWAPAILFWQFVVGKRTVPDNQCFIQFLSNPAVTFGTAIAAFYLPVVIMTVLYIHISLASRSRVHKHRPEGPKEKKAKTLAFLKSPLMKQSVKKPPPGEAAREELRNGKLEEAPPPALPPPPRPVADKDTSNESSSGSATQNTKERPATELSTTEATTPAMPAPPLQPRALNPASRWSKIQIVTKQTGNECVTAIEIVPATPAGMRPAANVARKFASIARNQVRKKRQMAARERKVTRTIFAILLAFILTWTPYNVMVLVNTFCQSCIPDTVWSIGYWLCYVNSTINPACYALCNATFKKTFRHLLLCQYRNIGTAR
Method in brief: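 CHO-K1 cells overexpressing the receptor were stimulated with forskolin to raise cAMP, so that Gi-mediated agonist decreases could be measured. cAMP was quantified by TR-FRET competition between cellular cAMP and labelled donor for anti-cAMP antibody, giving potency and efficacy.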

T1 sequence (P20309 whole entry): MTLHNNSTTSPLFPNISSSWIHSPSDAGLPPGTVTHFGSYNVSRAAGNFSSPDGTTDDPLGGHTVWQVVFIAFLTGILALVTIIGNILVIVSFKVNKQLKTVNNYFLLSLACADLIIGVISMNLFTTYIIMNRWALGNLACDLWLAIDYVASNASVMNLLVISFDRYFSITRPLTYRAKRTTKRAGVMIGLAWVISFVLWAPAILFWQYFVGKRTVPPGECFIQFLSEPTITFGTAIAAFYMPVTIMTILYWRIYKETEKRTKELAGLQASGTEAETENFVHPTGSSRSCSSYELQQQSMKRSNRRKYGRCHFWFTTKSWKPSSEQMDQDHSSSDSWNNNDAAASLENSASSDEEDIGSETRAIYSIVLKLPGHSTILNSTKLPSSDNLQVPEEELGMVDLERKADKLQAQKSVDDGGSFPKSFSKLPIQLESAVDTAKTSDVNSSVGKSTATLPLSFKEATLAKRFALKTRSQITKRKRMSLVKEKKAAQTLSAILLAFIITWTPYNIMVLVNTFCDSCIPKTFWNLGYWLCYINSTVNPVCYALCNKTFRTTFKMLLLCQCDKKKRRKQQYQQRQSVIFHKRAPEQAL

EC50 ([1]; FLIPR calcium) [µM]	Emax (M4 mAChR; cAMP TR-FRET with forskolin) [%]	EC50 ([1]; FLIPR) [µM]	Emax (M4 mAChR; cAMP assay) [%]	Structure (SMILES)
> 10	80 to 100	–	–	CCOC(=O)N1CC2(CC[C@@H](N3CCN(c4cc(F)cnc4-c4cccc(F)n4)CC3)C2)C1 [Compound A128]
> 10	80 to 100	–	–	CCOC(=O)N1CC2(CC[C@@H](N3CCN(c4cc(F)cnc4-c4cnc5c(cnn5C)c4)CC3)C2)C1 [Compound A129]
> 10	80 to 100	–	–	CCOC(=O)N1CC2(CC[C@@H](N3CCN(c4cc(F)cnc4-c4ccc5c(c4)OCO5)CC3)C2)C1 [Compound A130]
> 10	80 to 100	–	–	CCOC(=O)N1CC2(CC[C@@H](N3CCN(c4cc(F)cnc4-c4ccc5c(c4)ncn5C)CC3)C2)C1 [Compound A131]
> 10	80 to 100	–	–	CCOC(=O)N1CC2(CC[C@@H](N3CCN(c4cc(F)cnc4-c4cnc(OCC)nc4)CC3)C2)C1 [Compound A132]
> 10	19 to 49.9	–	–	CCOC(=O)N1CC2(CC[C@@H](N3CCN(c4cc(F)cnc4-c4cccc(OC)n4)CC3)C2)C1 [Compound A133]
> 10	80 to 100	–	–	CCOC(=O)N1CC2(CC[C@@H](N3CCN(c4cc(F)cnc4-c4ccc(CO)c(C)c4)CC3)C2)C1 [Compound A134]
> 10	19 to 49.9	–	–	CCOC(=O)N1CC2(CC[C@@H](N3CCN(c4cc(F)cnc4-c4cccc(C)n4)CC3)C2)C1 [Compound A135]
> 10	80 to 100	–	–	CCOC(=O)N1CC2(CC[C@@H](N3CCN(c4cc(F)cnc4-c4ccc(O)cc4F)CC3)C2)C1 [Compound A136]
> 10	80 to 100	–	–	CCOC(=O)N1CC2(CC[C@@H](N3CCN(c4cc(F)cnc4-c4ccc(OC)nc4C)CC3)C2)C1 [Compound A137]
> 10	80 to 100	–	–	CCOC(=O)N1CC2(CC[C@@H](N3CCN(c4cc(F)cnc4-c4cncc(COC)c4)CC3)C2)C1 [Compound A138]
> 10	80 to 100	–	–	CCOC(=O)N1CC2(CC[C@@H](N3CCN(c4cc(F)cnc4-c4cc(C)cc(CO)c4)CC3)C2)C1 [Compound A141]
> 10	80 to 100	–	–	CCOC(=O)N1CC2(CC[C@@H](N3CCN(c4cc(F)cnc4-c4cccc(O)c4F)CC3)C2)C1 [Compound A142]
> 10	80 to 100	–	–	CCOC(=O)N1CC2(CC[C@@H](N3CCN(c4cc(F)cnc4-c4cccc(O)n4)CC3)C2)C1 [Compound A143]
> 10	80 to 100	–	–	CCOC(=O)N1CC2(CC[C@@H](N3CCN(c4cc(F)cnc4-c4cc(C)nn4C)CC3)C2)C1 [Compound A144]
> 10	80 to 100	–	–	CCOC(=O)N1CC2(CC[C@@H](N3CCN(c4cc(F)cnc4-c4ccc(OC)cc4CO)CC3)C2)C1 [Compound A145]
> 10	80 to 100	–	–	CCOC(=O)N1CC2(CC[C@@H](N3CCN(c4cc(F)cnc4-c4ccc(F)cc4CO)CC3)C2)C1 [Compound A147]
–	–	> 10	80 to 100	CCOC(=O)N1CC2(CC[C@@H](N3CCN(c4cc(F)cnc4-c4ccc5nc[nH]c5c4)CC3)C2)C1 [Compound A148]
–	–	> 10	50 to 79.9	CCOC(=O)N1CC2(CC[C@@H](N3CCN(c4cc(F)cnc4-c4ccc(C)c(CO)c4)CC3)C2)C1 [Compound A150]
–	–	> 10	80 to 100	CCOC(=O)N1CC2(CC[C@@H](N3CCN(c4cc(F)cnc4-c4ccc(OC)cc4C#N)CC3)C2)C1 [Compound A152]
–	–	> 10	80 to 100	CCOC(=O)N1CC2(CC[C@@H](N3CCN(c4cc(F)cnc4-c4cc(F)ncc4F)CC3)C2)C1 [Compound A153]
–	–	> 10	80 to 100	CCOC(=O)N1CC2(CC[C@@H](N3CCN(c4cc(F)cnc4-c4cc(F)cc(CO)c4)CC3)C2)C1 [Compound A154]
–	–	> 10	80 to 100	CCOC(=O)N1CC2(CC[C@@H](N3CCN(c4cc(F)cnc4-c4ccc(=O)n(CC)c4)CC3)C2)C1 [Compound A155]
–	–	> 10	80 to 100	CCOC(=O)N1CC2(CC[C@@H](N3CCN(c4cc(F)cnc4-c4ccc(F)c(O)c4)CC3)C2)C1 [Compound A156]
–	–	> 10	80 to 100	CCOC(=O)N1CC2(CC[C@@H](N3CCN(c4cc(F)cnc4-c4cn(C)nc4C)CC3)C2)C1 [Compound A157]
–	–	> 10	80 to 100	CCOC(=O)N1CC2(CC[C@@H](N3CCN(c4cc(F)cnc4-c4ccc5c[nH]nc5c4)CC3)C2)C1 [Compound A159]
–	–	> 10	80 to 100	CCOC(=O)N1CC2(CC[C@@H](N3CCN(c4cc(F)cnc4-c4cnn5c4CCCC5)CC3)C2)C1 [Compound A160]

EC50 ([1]; FLIPR calcium) [µM]	Emax (M4 mAChR; cAMP TR-FRET with forskolin) [%]	EC50 ([1]; FLIPR) [µM]	Emax (M4 mAChR; cAMP assay) [%]	Structure (SMILES)
–	–	> 10	80 to 100	CCOC(=O)N1CC2(CC[C@@H](N3CCN(c4cc(F)cnc4-c4ccc(F)nc4C)CC3)C2)C1 [Compound A161]
–	–	> 10	80 to 100	CCOC(=O)N1CC2(CC[C@@H](N3CCN(c4cc(F)cnc4-c4cccc(F)c4CO)CC3)C2)C1 [Compound A162]
–	–	> 10	80 to 100	CCOC(=O)N1CC2(CC[C@@H](N3CCN(c4cc(F)cnc4-c4ccnc(F)c4OC)CC3)C2)C1 [Compound A163]
–	–	> 10	50 to 79.9	CCOC(=O)N1CC2(CC[C@@H](N3CCN(c4cc(F)cnc4-c4cn(C)c5ncccc45)CC3)C2)C1 [Compound A164]
–	–	> 10	80 to 100	CCOC(=O)N1CC2(CC[C@@H](N3CCN(c4cc(F)cnc4-c4ccn5nccc5c4)CC3)C2)C1 [Compound A165]
–	–	> 10	80 to 100	CCOC(=O)N1CC2(CC[C@@H](N3CCN(c4cc(F)cnc4-c4c(O)cccc4F)CC3)C2)C1 [Compound A167]
–	–	> 10	80 to 100	CCOC(=O)N1CC2(CC[C@@H](N3CCN(c4cc(F)cnc4-c4cnn(COC)c4)CC3)C2)C1 [Compound A168]
–	–	> 10	80 to 100	CCOC(=O)N1CC2(CC[C@@H](N3CCN(c4cc(F)cnc4-c4ccc(CCO)cc4)CC3)C2)C1 [Compound A169]
–	–	> 10	80 to 100	CCOC(=O)N1CC2(CC[C@@H](N3CCN(c4cc(F)cnc4-c4c[nH]nc4C4CC4)CC3)C2)C1 [Compound A170]
–	–	> 10	80 to 100	CCOC(=O)N1CC2(CC[C@@H](N3CCN(c4cc(F)cnc4-c4cnn(CCF)c4)CC3)C2)C1 [Compound A171]
–	–	> 10	80 to 100	CCOC(=O)N1CC2(CC[C@@H](N3CCN(c4cc(F)cnc4-c4cnn(CC(F)F)c4)CC3)C2)C1 [Compound A172]
–	–	> 10	50 to 79.9	CCOC(=O)N1CC2(CC[C@@H](N3CCN(c4cc(F)cnc4-c4cnn5c4OCCC5)CC3)C2)C1 [Compound A173]
–	–	> 10	80 to 100	CCOC(=O)N1CC2(CC[C@@H](N3CCN(c4cc(F)cnc4-c4cncc(N)c4)CC3)C2)C1 [Compound A174]
–	–	> 10	80 to 100	CCOC(=O)N1CC2(CC[C@@H](N3CCN(c4cc(F)cnc4-c4cc(O)ncc4F)CC3)C2)C1 [Compound A175]
–	–	> 10	80 to 100	CCOC(=O)N1CC2(CC[C@@H](N3CCN(c4cc(F)cnc4-c4ccc5c(c4)nnn5C)CC3)C2)C1 [Compound A176]
–	–	> 10	80 to 100	CCOC(=O)N1CC2(CC[C@@H](N3CCN(c4cc(F)cnc4-c4ccn5ncnc5c4)CC3)C2)C1 [Compound A177]
–	–	> 10	19 to 49.9	CCOC(=O)N1CC2(CC[C@@H](N3CCN(c4cc(F)cnc4-c4cccc5ncnn45)CC3)C2)C1 [Compound A178]
–	–	> 10	80 to 100	CCOC(=O)N1CC2(CC[C@@H](N3CCN(c4cc(F)cnc4-c4cccnc4F)CC3)C2)C1 [Compound A179]
–	–	> 10	80 to 100	CCOC(=O)N1CC2(CC[C@@H](N3CCN(c4cc(F)cnc4-c4ccc(OC)nc4F)CC3)C2)C1 [Compound A180]
–	–	> 10	80 to 100	CCOC(=O)N1CC2(CC[C@@H](N3CCN(c4cc(F)cnc4-c4cncnc4C)CC3)C2)C1 [Compound A181]
–	–	> 10	80 to 100	CCOC(=O)N1CC2(CC[C@@H](N3CCN(c4cc(F)cnc4-c4ccc(C#N)cc4)CC3)C2)C1 [Compound A182]
–	–	> 10	80 to 100	CCOC(=O)N1CC2(CC[C@@H](N3CCN(c4cc(F)cnc4-c4cnc(C5CC5)nc4)CC3)C2)C1 [Compound A183]
–	–	> 10	80 to 100	CCOC(=O)N1CC2(CC[C@@H](N3CCN(c4cc(F)cnc4-c4ccc(C)nc4)CC3)C2)C1 [Compound A186]
–	–	> 10	80 to 100	[2H]C([2H])([2H])n1cc(-c2ncc(F)cc2N2CCN([C@@H]3CCC4(C3)CN(C(=O)OCC)C4)CC2)cn1 [Compound A187]
–	–	> 10	80 to 100	CCOC(=O)N1CC2(CC[C@@H](N3CCN(c4cc(F)cnc4-c4ccc(OC)nc4)CC3)C2)C1 [Compound A188]
–	–	> 10	80 to 100	CCOC(=O)N1CC2(CC[C@@H](N3CCN(c4cc(F)cnc4-c4ccc(OC(F)F)nc4)CC3)C2)C1 [Compound A189]
